According to ChEMBL document CHEMBL4017455, “Novel small molecule guanidine Sigma1 inhibitors for advanced prostate cancer” (Bioorg Med Chem Lett, 2017):
Values after ≈ are worked out from the molar mass of the structure shown. Active and inactive are the calls of the source. No cut-off for these calls is given here.

What was measured:
Androgen receptor = molecular target: T1, Androgen receptor (Homo sapiens, UniProt P10275); assay: Antagonist activity at full length human androgen receptor expressed in mammalian expression system measured after 22 to 24 hrs by luciferase reporter gene assay
T1 sequence (P10275 whole entry): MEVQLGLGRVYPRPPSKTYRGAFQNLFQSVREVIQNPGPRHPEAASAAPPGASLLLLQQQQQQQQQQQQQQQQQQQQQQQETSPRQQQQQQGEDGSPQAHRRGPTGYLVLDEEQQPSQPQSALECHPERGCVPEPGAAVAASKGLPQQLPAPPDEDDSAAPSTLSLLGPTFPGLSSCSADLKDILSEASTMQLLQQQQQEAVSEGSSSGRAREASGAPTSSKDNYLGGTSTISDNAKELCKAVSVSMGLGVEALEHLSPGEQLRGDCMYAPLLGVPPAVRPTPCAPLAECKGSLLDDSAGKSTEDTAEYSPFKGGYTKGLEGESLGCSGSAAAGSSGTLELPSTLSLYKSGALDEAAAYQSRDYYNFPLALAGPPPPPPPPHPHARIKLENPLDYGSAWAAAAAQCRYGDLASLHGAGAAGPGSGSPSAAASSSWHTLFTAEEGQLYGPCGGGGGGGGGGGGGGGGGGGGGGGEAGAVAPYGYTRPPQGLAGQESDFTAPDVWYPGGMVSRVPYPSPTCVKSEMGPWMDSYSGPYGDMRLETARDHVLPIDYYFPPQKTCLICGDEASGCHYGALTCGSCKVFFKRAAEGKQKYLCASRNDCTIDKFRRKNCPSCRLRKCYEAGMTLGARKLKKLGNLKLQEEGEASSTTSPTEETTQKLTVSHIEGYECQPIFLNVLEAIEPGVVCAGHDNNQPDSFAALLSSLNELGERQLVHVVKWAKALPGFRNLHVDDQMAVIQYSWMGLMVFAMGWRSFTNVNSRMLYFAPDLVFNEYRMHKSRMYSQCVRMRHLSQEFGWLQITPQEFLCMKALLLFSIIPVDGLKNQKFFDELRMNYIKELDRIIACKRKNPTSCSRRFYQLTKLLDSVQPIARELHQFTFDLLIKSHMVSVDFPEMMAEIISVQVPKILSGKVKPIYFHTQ

[1] = Solubility of compound in PBS buffer at pH 7.4; assay type: physicochemical
Plasma [2] = assay: Protein binding in mouse plasma; assay type: ADME, cell-free
[3] = Stability in human liver microsomes; assay type: ADME, microsome; conditions: read-out: Stability
Plasma [4] = assay: Protein binding in human plasma; assay type: ADME, cell-free
[5] = molecular target: T2, Voltage-gated inwardly rectifying potassium channel KCNH2 (Homo sapiens, UniProt Q12809); assay: Inhibition of human ERG
[6] = Stability in mouse plasma; assay type: ADME, cell-free; conditions: read-out: Stability
[7] = Stability in mouse liver microsomes; assay type: ADME, microsome; conditions: read-out: Stability
[8] = molecular target: T3, Sigma non-opioid intracellular receptor 1 (Homo sapiens, UniProt Q99720); assay: Displacement of [3H]-(+)-pentazocine from sigma1 in human MDA-MB-468 cell membranes
[9] = Stability in human plasma; assay type: ADME, cell-free; conditions: read-out: Stability
Brain = conditions: mouse, in vivo, ip, 10 mg/kg
[10] = AUC (0 to infinity) in Swiss mouse plasma at 10 mg/kg, po; assay type: ADME, organism-based; parameters: dose 10 mg/kg, time infinity, route oral
[11] = Half life in Swiss mouse plasma at 30 mg/kg, po
[12] = Ratio of drug level in Swiss mouse brain to plasma at 10 mg/kg, ip
in vivo [13] = conditions: Swiss, mouse, plasma, po, 30 mg/kg
MDA-MB-468 = assay: Antiproliferative activity against human MDA-MB-468 cells at 3 to 20 uM by CellTiter-Glo assay; assay type: functional, cell-based
[14] = AUC (0 to infinity) in Swiss mouse plasma at 2 mg/kg, iv; assay type: ADME, organism-based; parameters: dose 2 mg/kg, time infinity, route intravenous
[15] = Volume of distribution in Swiss mouse plasma at 2 mg/kg, iv; assay type: ADME, organism-based
[16] = AUC (0 to infinity) in Swiss mouse brain at 10 mg/kg, ip; assay type: ADME, organism-based; parameters: dose 10 mg/kg, time infinity, route intraperitoneal
[17] = Half life in Swiss mouse plasma at 10 mg/kg, po
[18] = Clearance in Swiss mouse plasma at 2 mg/kg, iv
in vivo [19] = conditions: Swiss, mouse, plasma, po, 10 mg/kg
in vivo [20] = conditions: Swiss, mouse, plasma, po, 10 mg/kg; remark: listed apart in the source
[21] = AUC (0 to infinity) in Swiss mouse plasma at 10 mg/kg, ip; assay type: ADME, organism-based; parameters: dose 10 mg/kg, route intraperitoneal, time infinity
in vivo [22] = conditions: Swiss, mouse, plasma, po, 10 mg/kg; remark: listed apart in the source
in vivo [23] = conditions: Swiss, mouse, plasma, po, 30 mg/kg; remark: listed apart in the source
Plasma [24] = conditions: mouse, in vivo, ip, 10 mg/kg
in vivo [25] = conditions: Swiss, mouse, plasma, po, 30 mg/kg; remark: listed apart in the source
[26] = AUC (0 to infinity) in Swiss mouse plasma at 30 mg/kg, po; assay type: ADME, organism-based; parameters: dose 30 mg/kg, time infinity, route oral
[27] = molecular target: T3, Sigma non-opioid intracellular receptor 1; assay: Displacement of [125I]-IPAG from sigma1 in human MDA-MB-468 cell membranes
[28] = molecular target: T2, Voltage-gated inwardly rectifying potassium channel KCNH2; assay: Inhibition of human ERG expressed in CHOK1 cells by Qpatch clamp method

T3 sequence (Q99720 whole entry): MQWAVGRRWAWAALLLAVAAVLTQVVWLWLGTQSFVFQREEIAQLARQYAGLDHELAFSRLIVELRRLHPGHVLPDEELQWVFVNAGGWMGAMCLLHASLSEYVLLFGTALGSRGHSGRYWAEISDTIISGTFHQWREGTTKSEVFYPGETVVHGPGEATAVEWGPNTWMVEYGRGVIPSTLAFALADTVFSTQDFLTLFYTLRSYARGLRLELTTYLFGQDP
T2 sequence (Q12809 whole entry): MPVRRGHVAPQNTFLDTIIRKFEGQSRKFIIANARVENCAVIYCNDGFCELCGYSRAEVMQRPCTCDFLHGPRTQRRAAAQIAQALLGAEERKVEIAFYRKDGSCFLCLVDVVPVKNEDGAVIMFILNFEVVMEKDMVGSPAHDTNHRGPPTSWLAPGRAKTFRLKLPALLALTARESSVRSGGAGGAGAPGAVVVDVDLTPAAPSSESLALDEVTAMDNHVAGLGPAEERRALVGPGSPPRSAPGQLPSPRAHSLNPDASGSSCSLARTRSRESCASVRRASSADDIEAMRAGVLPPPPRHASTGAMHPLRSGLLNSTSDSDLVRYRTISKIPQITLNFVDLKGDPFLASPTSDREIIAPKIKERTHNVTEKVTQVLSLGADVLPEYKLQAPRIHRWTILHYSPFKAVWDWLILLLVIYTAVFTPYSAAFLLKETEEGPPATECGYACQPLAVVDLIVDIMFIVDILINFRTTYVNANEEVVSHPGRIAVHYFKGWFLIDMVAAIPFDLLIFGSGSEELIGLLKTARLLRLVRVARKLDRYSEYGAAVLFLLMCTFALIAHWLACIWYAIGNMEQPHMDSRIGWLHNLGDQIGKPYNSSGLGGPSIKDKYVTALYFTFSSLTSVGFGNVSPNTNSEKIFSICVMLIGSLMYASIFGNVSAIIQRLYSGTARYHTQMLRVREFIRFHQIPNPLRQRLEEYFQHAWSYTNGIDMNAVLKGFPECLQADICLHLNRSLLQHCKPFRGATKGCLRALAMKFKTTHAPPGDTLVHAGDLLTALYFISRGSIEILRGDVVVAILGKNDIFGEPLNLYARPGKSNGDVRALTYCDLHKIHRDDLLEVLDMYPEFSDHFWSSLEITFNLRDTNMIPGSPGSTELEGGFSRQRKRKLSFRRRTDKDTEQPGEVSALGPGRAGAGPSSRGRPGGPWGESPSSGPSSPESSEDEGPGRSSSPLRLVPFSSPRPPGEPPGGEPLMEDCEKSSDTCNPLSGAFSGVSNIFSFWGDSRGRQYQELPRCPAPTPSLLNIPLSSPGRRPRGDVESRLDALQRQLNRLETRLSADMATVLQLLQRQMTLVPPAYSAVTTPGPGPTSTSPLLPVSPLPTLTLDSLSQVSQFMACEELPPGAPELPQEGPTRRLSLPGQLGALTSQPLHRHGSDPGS

Row | SMILES | EC50 (Androgen receptor) [nM] | solubility [1] [µg/mL] | PPB (Plasma [2]) [%] | half-life [3] [h] | PPB (Plasma [4]) [%] | half-life [6] [h] | half-life [7] [h] | Ki [8] [nM] | half-life [9] [h] | IC50 [5] [nM] | other results
1 | CC(=O)O[C@H]1CC[C@@]2(C)C(=CC[C@@H]3[C@@H]2CC[C@]2(C)C(c4cccnc4)=CC[C@@H]32)C1 [ABIRATERONE ACETATE] | 17000 to 17100 |  |  |  |  |  |  |  |  |  | 
2 | N=C(Nc1ccc(I)cc1)Nc1ccc(I)cc1 |  |  |  |  |  |  |  |  |  |  | Ki [27]: 3 nM
3 | N=C(NCCCOc1ccc(F)cc1)NCCCOc1ccc(F)cc1 |  |  |  |  |  |  |  |  |  |  | Ki [27]: > 1000 nM

Second part, led by results:

Row | EC50 (Androgen receptor) [nM] | solubility [1] [µg/mL] | PPB (Plasma [2]) [%] | half-life [3] [h] | PPB (Plasma [4]) [%] | half-life [6] [h] | half-life [7] [h] | Ki [8] [nM] | half-life [9] [h] | SMILES | IC50 [5] [nM] | other results
4 | 28100 | 8450 (≈ 26.6 mM) | 82.1 | 0.387 | 75.1 | > 6 | 0.117 | 13.4 | > 6 | COc1ccc(NC(=N)NCCCOc2ccc(F)cc2)cc1 | 417 | 
5 |  |  |  |  |  |  |  | 45.3 |  | N=C(NCCCOc1ccc(F)cc1)Nc1ccc(C(F)(F)F)cc1 |  | 
6 | 12700 | 4580 (≈ 14.2 mM) | 88.8 | > 1.5 | 93.4 | > 6 | 0.413 |  | > 6 | N=C(NCCCOc1ccc(F)cc1)Nc1ccc(Cl)cc1 |  | Cmax (Brain): 2150 nM; AUC(0-inf) [10]: 141 ng·h/mL; half-life [11]: > 3 h; Kp [12]: 5; AUC(0-t) (in vivo [13]): 414 ng·h/mL; Activity (MDA-MB-468): Active; AUC(0-inf) [14]: 57 to 71 ng·h/mL; Vd [15]: 57.6 to 91 L/kg; AUC(0-inf) [16]: 856 ng·h/mL; half-life [17]: > 3 h; clearance [18]: 469 to 586 mL/min/kg; Tmax (in vivo [19]): 0.25 h; Cmax (in vivo [20]): 304 nM; AUC(0-inf) [21]: 166 ng·h/mL; AUC(0-t) (in vivo [22]): 119 ng·h/mL; Cmax (in vivo [23]): 674 nM; Cmax (Plasma [24]): 438 nM; Tmax (in vivo [25]): 1 h; AUC(0-inf) [26]: 480 ng·h/mL
7 | 9500 to 9750 |  |  |  |  |  |  |  |  | NC(=NC12CC3CC(CC(C3)C1)C2)Nc1ccc(I)cc1 | 491 | IC50 [28]: 2600 nM
8 |  | 5370 (≈ 13 mM) | 97.9 | > 1.5 | 96.6 | > 6 | 0.41 | 46.1 | > 6 | N=C(NCCCOc1ccc(F)cc1)Nc1ccc(I)cc1 | 109 | Activity (MDA-MB-468): Active
